Source: patent publication US20100137267A1, “FORMULATIONS FOR TREATMENT OF ADIPOSE TISSUE, CUTANEOUS TISSUE AND DISORDERS, AND MUSCULAR TISSUE” (priority 2006, published 2010)
“Also recorded” adds a separate entry of the source.

Assays:
[1] = Octanol:Water; cited from earlier work
[2] = system: cultured human adipocytes; assay: In vitro lipolysis assay (glycerol release) in cultured adipocytes; format: cell-based; details: for lipolysis after 18 hour incubation: Salmeterol 10^−6 M or 10^−8 M, Budesonide 10^−6 M in combination; for increase in lipolysis: relative to negative control (0.1% DMSO), Isoproterenol 10^−6 M positive control
Procedure: In the in vitro lipolysis assay, glycerol was detected in cell culture media via a spectrophotometric measurement after chemical oxidation with hydrogen peroxide. Glycerol was measured over a three hour time period. Levels of lipolysis in cultured human adipocytes were tested after exposure to a beta adrenergic agonist alone, a glucocorticosteroid alone, or the combination of the two for one or more preincubation periods as described in more detail below.
Human subcutaneous adipocytes were used in the lipolysis assay. Adipose tissue was harvested from liposuction or lipectomy and pre-adipocytes were isolated as follows. Briefly, fat tissue was minced and incubated at 37° C. in Krebs-Ringer bicarbonate buffer containing 1% bovine serum albumin and 0.1% collagenase in an oxygen-rich shaking chamber (5% CO2; 75 strokes/min) for 1 hour. The suspension was filtered through a 400 μm nylon mesh and centrifuged for 1 min at 100 g. The pre-adipocytes in the supernatant were washed twice with and then plated in 96 well plates at a density of cells/well. The pre-adipocytes were cultured in maintenance medium for seven days as they differentiated into adipocytes.
At −21 hours before the lipolysis assay, medium was removed from each well and replaced with 75 μl of Maintenance Medium containing appropriate drug or DMSO (vehicle) concentrations (see Experimental Design section below). Each test drug or control treatment was applied to 8 wells/group (12 treatment groups per 96-well plate). At −3 hours prior to the lipolysis assay, each well was washed two times with Wash Buffer (200 μl/wash), filled with test or control solutions made up in Assay Buffer (75 μl/well), and then incubated for three hours, i.e., until measurement of glycerol content in the Assay Buffer. For some groups, a drug was only added for the three hour incubation period (see Experimental and Control Groups Below).
The glycerol content of the Assay Buffer from each well following the incubation was used as an index for lipolysis, where an increase in glycerol indicated lipolysis. Glycerol levels were assayed colorimetrically via a commercial glycerol assay kit (Randox Laboratory, United Kingdom) and quantified by comparison to a glycerol serial dilution standard curve (3 μM-200 μM). Glycerol concentrations for each well were normalized to cell density.
In each of the following control or experimental groups n=8 corresponding to the glycerol measurements for 8 wells from a 96-well cell culture plate.

[3] = compared with albuterol 5, a short acting hydrophilic beta adrenergic agonist; cited from earlier work

Compound	Log P [1]	lipolysis after 18 hour incubation ([2]; Isoproterenol 10^−6 M)	lipophilicity relative to albuterol [3]	increase in lipolysis ([2]; three hour incubation)	induction of lipolysis in cultured adipocytes (figure legend) ([2]; three hour incubation)	lipolysis compared with Isoproterenol (positive control) ([2]; three hour incubation, Isoproterenol 10^−6 M, formoterol statement holds for concentrations of 10^−6 M and above)
COc1ccc(C[C@@H](C)NC[C@H](O)c2ccc(O)c(NC=O)c2)cc1 (racemic) [Formoterol, ±N-[2-hydroxy-5-[1-hydroxy-2-[1-(4-methoxyphenyl)propan-2-ylamino]ethyl]phenyl]methanamide]	2-4	–	–	–	–	–
OCc1cc(C(O)CNCCCCCCOCCCCc2ccccc2)ccc1O (racemic) [Salmeterol, ±2-(hydroxymethyl)-4-[1-hydroxy-2-[6-(4-phenylbutoxy)hexylamino]ethyl]-phenol]	–	decreased lipolysis; also recorded: dose-dependent suppression of lipolysis	at least 10,000 times	–	–	–
CC(C)NCC(O)c1ccc(O)c(O)c1 (stereo not drawn) [Isoproterenol, isoproterenol]	–	decreased lipolysis	–	about 2.5 fold	–	–
budesonide	–	slight suppression of lipolysis	–	up to 1.5 fold	dose-dependent induction of lipolysis	lower than that observed for Isoproterenol
